Results published in article PMC12127288, “Engineering of antimicrobial peptide Brevinin-1pl: arginine, lysine, and histidine substitutions enhance antimicrobial-anticancer efficacy with reduced cytotoxicity” (Frontiers in Chemistry, 2025).
Converted amounts (≈) assume the structure as drawn. Positions of bridges follow the written chain, without caps; N, C: chain ends. Residues, ends and D or L forms follow the SMILES beside them.

Legend:
[1] = tested on: Acinetobacter baumannii BAA 747; assay type: cell-based; details: BAA 747, 18 h
Description: (§1) The minimal inhibitory concentration (MIC) and minimal bactericidal concentration (MBC) values of the peptides were determined by established protocols to evaluate their antimicrobial activities ([Lin et al., 2021]). The MIC value was the lowest concentration of a peptide that inhibits visible bacterial growth after incubating 18 h (CLSI standard). Once the MIC values were determined, an aliquot from the bacterial culture exposed to the peptide at or above its MIC value was inoculated on a Mueller Hinton agar (MHA) and was incubated at 37 for 18 h (CLSI standard). The MBC value was the lowest concentration of a peptide that kills 99.9% of bacteria. Antimicrobial activities of synthetic peptides were assessed by determination of MIC and MBC values using eight kinds of bacteria and yeast: Gram-positive bacteria, Staphylococcus aureus ATCC 6538 (S. aureus 6538), Methicillin-resistant Staphylococcus aureus NCTC 12493 (MRSA 12493), and Enterococcus faecalis NCTC 12697 (E. faecium 12697); Gram-negative bacteria, Escherichia coli ATCC 8739 (E. coli 8739), Pseudomonas aeruginosa ATCC CRM 9027 (P. aeruginosa 9027), Klebsiella pneumoniae ATCC 43816 (K. pneumoniae 43816), and Acinetobacter baumannii BAA 747 (A. baumannii 747); and pathogenic yeast, Candida albicans ATCC 10231 (C. albicans 10231).

[2] = tested on: Escherichia coli ATCC 8739; assay type: cell-based; details: ATCC 8739, 18 h
Description: as §1

[3] = tested on: Methicillin-resistant Staphylococcus aureus NCTC 12493; assay type: cell-based; details: NCTC 12493, 18 h
Description: as §1

[4] = tested on: Pseudomonas aeruginosa ATCC CRM 9027; assay type: cell-based; details: ATCC CRM 9027, 18 h
Description: as §1

[5] = tested on: Klebsiella pneumoniae ATCC 43816; assay type: cell-based; details: ATCC 43816, 18 h
Description: as §1

[6] = tested on: Candida albicans ATCC 10231; assay type: cell-based; details: ATCC 10231, 18 h
Description: as §1

[7] = tested on: Staphylococcus aureus ATCC 6538; assay type: cell-based; details: ATCC 6538, 18 h
Description: as §1

[8] = tested on: E. faecium 12697; assay type: cell-based, Enterococcus faecalis NCTC 12697 (E. faecium 12697); details: 12697, 18 h
Description: as §1

[9] = tested on: HaCaT cells; assay type: cell-based, human
Description: Lung cancer cell line, H838 (ATCC, United States), breast cancer cell line, MCF7 (ATCC, United States), and human immortalized keratinocytes, HaCat (Caltag Medsystems, United Kingdom), were used in this experiment to test the anti-proliferation activity of peptides brevine-1pl and its four analogues. H838 cells were maintained in RPMI-1640 medium (Gibco, United Kingdom), whereas MCF-7 and HaCaT cells were cultured in DMEM medium (Gibco, United Kingdom), supplemented with 10% (v/v) fetal bovine serum (FBS, Gibco, United Kingdom) and 1% (v/v) penicillin-streptomycin (PS, Gibco, United Kingdom). Cells were seeded in 96-well plates at densities of 8,000 cells/well for H838 and MCF-7 and 10,000 cells/well for HaCaT, followed by overnight incubation at 37°C under 5% CO2 to allow adherence. Following attachment, cells were exposed to peptide solutions at final concentrations ranging from 10^–4 M to 10^–9 M. After 22 h of treatment, 0.5 mg/ml MTT solution was added to each well and incubated at 37°C for 4 h. The medium was then aspirated, and 100 μl of DMSO was added to solubilize formazan crystals. Plates were agitated for 15 min in a shaking incubator, and absorbance was measured at 570 nm using a Synergy HT microplate reader. […] Cell viability (%) was calculated using the formula: Viability (%) = (ODtreated − ODblank)/(ODcontrol− ODblank) *100. […]

[10] = tested on: horse erythrocytes; assay type: cell-based
Description: The hemolytic activity of the peptides was assessed using horse erythrocytes. Horse erythrocytes were selected due to their similarity to human erythrocytes in membrane composition and widespread use in AMP studies for standardization. Following a previously established protocol ([Gao et al., 2016]). Peptide solutions with final concentrations ranging from 1 µM to 128 µM were incubated with 2% horse erythrocytes at 37°C for 2 h. Triton X-100 (1%) served as the positive control, while sterile PBS was used as the blank control. After that, the peptide-horse erythrocytes mixture was centrifuged at 930 g for 10 min, and the absorbance at 570 nm of the supernatant was measured. The hemolysis rate was calculated using the formal: Percentage Hemolysis = (Absorbance of sample − Absorbance of blank)/(Absorbance of Positive- Absorbance of Blank) × 100%

Compound	MIC [1]	MIC [2]	MIC [3]	MIC [4]	MIC [5]	MIC [6]	MIC [7]	MIC [8]	MBC [1]	MBC [2]	MBC [3]	MBC [4]	MBC [5]	MBC [6]	MBC [7]	MBC [8]	Cytotoxicity toward normal HaCaT cells (in words) [9]	Hemolytic activity at 16 μM (in words) [10]
CC[C@H](C)[C@H](NC(=O)[C@H](CCCCN)NC(=O)[C@H](CCCCN)NC(=O)[C@H](CC(C)C)NC(=O)[C@@H](NC(=O)[C@H](CCCCN)NC(=O)[C@H](C)NC(=O)[C@H](C)NC(=O)[C@@H](NC(=O)CNC(=O)[C@H](C)NC(=O)[C@@H](NC(=O)[C@@H](NC(=O)[C@@H]1CCCN1C(=O)[C@H](Cc1ccccc1)NC(=O)[C@@H](N)Cc1ccccc1)[C@@H](C)CC)C(C)C)C(C)C)C(C)C)C(=O)N[C@@H](Cc1ccccc1)C(=O)N[C@H]1CSSC[C@@H](C(=O)O)NC(=O)[C@H](CCCNC(=N)N)NC(=O)[C@H](CCCNC(=N)N)NC(=O)[C@H](CO)NC(=O)[C@H]([C@@H](C)CC)NC(=O)[C@H]([C@@H](C)O)NC1=O [brevinin-1pl-2R] (H-FFPIVAGVAAKVLKKIFCTISRRC-OH; disulfide 18-24)	8 µM (≈ 21.3 µg/mL)	4 µM (≈ 10.7 µg/mL)	2 µM (≈ 5.33 µg/mL)	8 µM (≈ 21.3 µg/mL)	8 µM (≈ 21.3 µg/mL)	> 128 µM	2 µM (≈ 5.33 µg/mL)	4 µM (≈ 10.7 µg/mL)	16 µM (≈ 42.7 µg/mL)	4 µM (≈ 10.7 µg/mL)	2 µM (≈ 5.33 µg/mL)	8 µM (≈ 21.3 µg/mL)	8 µM (≈ 21.3 µg/mL)	> 128 µM	2 µM (≈ 5.33 µg/mL)	4 µM (≈ 10.7 µg/mL)		
CC[C@H](C)[C@H](NC(=O)[C@H](Cc1c[nH]cn1)NC(=O)[C@H](Cc1c[nH]cn1)NC(=O)[C@H](CC(C)C)NC(=O)[C@@H](NC(=O)[C@H](Cc1c[nH]cn1)NC(=O)[C@H](C)NC(=O)[C@H](C)NC(=O)[C@@H](NC(=O)CNC(=O)[C@H](C)NC(=O)[C@@H](NC(=O)[C@@H](NC(=O)[C@@H]1CCCN1C(=O)[C@H](Cc1ccccc1)NC(=O)[C@@H](N)Cc1ccccc1)[C@@H](C)CC)C(C)C)C(C)C)C(C)C)C(=O)N[C@@H](Cc1ccccc1)C(=O)N[C@H]1CSSC[C@@H](C(=O)O)NC(=O)[C@H](CCCCN)NC(=O)[C@H](CCCCN)NC(=O)[C@H](CO)NC(=O)[C@H]([C@@H](C)CC)NC(=O)[C@H]([C@@H](C)O)NC1=O [brevinin-1pl-3H] (H-FFPIVAGVAAHVLHHIFCTISKKC-OH; disulfide 18-24)	> 128 µM	32 µM (≈ 84.4 µg/mL)		64 µM (≈ 169 µg/mL)	32 µM (≈ 84.4 µg/mL)	64 µM (≈ 169 µg/mL)	8 µM (≈ 21.1 µg/mL)	16 µM (≈ 42.2 µg/mL)	> 128 µM	32 µM (≈ 84.4 µg/mL)	4/4 µM	64 µM (≈ 169 µg/mL)	64 µM (≈ 169 µg/mL)	> 128 µM	8 µM (≈ 21.1 µg/mL)	32 µM (≈ 84.4 µg/mL)	low cytotoxicity	low hemolytic activity

More lines, main results first:

MIC [1]	MIC [2]	MIC [3]	MIC [4]	MIC [5]	MIC [6]	MIC [7]	MIC [8]	Compound	MBC [1]	MBC [2]	MBC [3]	MBC [4]	MBC [5]	MBC [6]	MBC [7]	MBC [8]	Cytotoxicity toward normal HaCaT cells (in words) [9]	Hemolytic activity at 16 μM (in words) [10]
16 µM (≈ 44 µg/mL)	8 µM (≈ 22 µg/mL)	2 µM (≈ 5.5 µg/mL)	16 µM (≈ 44 µg/mL)	16 µM (≈ 44 µg/mL)	> 128 µM	2 µM (≈ 5.5 µg/mL)	2 µM (≈ 5.5 µg/mL)	CC[C@H](C)[C@H](NC(=O)[C@H](CCCNC(=N)N)NC(=O)[C@H](CCCNC(=N)N)NC(=O)[C@H](CC(C)C)NC(=O)[C@@H](NC(=O)[C@H](CCCNC(=N)N)NC(=O)[C@H](C)NC(=O)[C@H](C)NC(=O)[C@@H](NC(=O)CNC(=O)[C@H](C)NC(=O)[C@@H](NC(=O)[C@@H](NC(=O)[C@@H]1CCCN1C(=O)[C@H](Cc1ccccc1)NC(=O)[C@@H](N)Cc1ccccc1)[C@@H](C)CC)C(C)C)C(C)C)C(C)C)C(=O)N[C@@H](Cc1ccccc1)C(=O)N[C@H]1CSSC[C@@H](C(=O)O)NC(=O)[C@H](CCCNC(=N)N)NC(=O)[C@H](CCCNC(=N)N)NC(=O)[C@H](CO)NC(=O)[C@H]([C@@H](C)CC)NC(=O)[C@H]([C@@H](C)O)NC1=O [brevinin-1pl-5R] (H-FFPIVAGVAARVLRRIFCTISRRC-OH; disulfide 18-24)	32 µM (≈ 88 µg/mL)	8 µM (≈ 22 µg/mL)	2 µM (≈ 5.5 µg/mL)	16 µM (≈ 44 µg/mL)	16 µM (≈ 44 µg/mL)	> 128 µM	2 µM (≈ 5.5 µg/mL)	2 µM (≈ 5.5 µg/mL)		
16 µM (≈ 42 µg/mL)	4 µM (≈ 10.5 µg/mL)	4 µM (≈ 10.5 µg/mL)	8 µM (≈ 21 µg/mL)	8 µM (≈ 21 µg/mL)	> 128 µM	4 µM (≈ 10.5 µg/mL)	16 µM (≈ 42 µg/mL)	CC[C@H](C)[C@H](NC(=O)[C@H](CCCCN)NC(=O)[C@H](CCCCN)NC(=O)[C@H](CC(C)C)NC(=O)[C@@H](NC(=O)[C@H](CCCCN)NC(=O)[C@H](C)NC(=O)[C@H](C)NC(=O)[C@@H](NC(=O)CNC(=O)[C@H](C)NC(=O)[C@@H](NC(=O)[C@H](CCCCN)NC(=O)[C@@H]1CCCN1C(=O)[C@H](Cc1ccccc1)NC(=O)[C@@H](N)Cc1ccccc1)C(C)C)C(C)C)C(C)C)C(=O)N[C@@H](Cc1ccccc1)C(=O)N[C@H]1CSSC[C@@H](C(=O)O)NC(=O)[C@H](CCCCN)NC(=O)[C@H](CCCCN)NC(=O)[C@H](CO)NC(=O)[C@H]([C@@H](C)CC)NC(=O)[C@H]([C@@H](C)O)NC1=O [brevinin-1pl-6K] (H-FFPKVAGVAAKVLKKIFCTISKKC-OH; disulfide 18-24)	16 µM (≈ 42 µg/mL)	4 µM (≈ 10.5 µg/mL)	4 µM (≈ 10.5 µg/mL)	8 µM (≈ 21 µg/mL)	8 µM (≈ 21 µg/mL)	> 128 µM	4 µM (≈ 10.5 µg/mL)	16 µM (≈ 42 µg/mL)		
8 µM (≈ 20.9 µg/mL)	4 µM (≈ 10.4 µg/mL)	2 µM (≈ 5.22 µg/mL)	8 µM (≈ 20.9 µg/mL)	8 µM (≈ 20.9 µg/mL)	> 128 µM	2 µM (≈ 5.22 µg/mL)	4 µM (≈ 10.4 µg/mL)	CC[C@H](C)[C@H](NC(=O)[C@H](CCCCN)NC(=O)[C@H](CCCCN)NC(=O)[C@H](CC(C)C)NC(=O)[C@@H](NC(=O)[C@H](CCCCN)NC(=O)[C@H](C)NC(=O)[C@H](C)NC(=O)[C@@H](NC(=O)CNC(=O)[C@H](C)NC(=O)[C@@H](NC(=O)[C@@H](NC(=O)[C@@H]1CCCN1C(=O)[C@H](Cc1ccccc1)NC(=O)[C@@H](N)Cc1ccccc1)[C@@H](C)CC)C(C)C)C(C)C)C(C)C)C(=O)N[C@@H](Cc1ccccc1)C(=O)N[C@H]1CSSC[C@@H](C(=O)O)NC(=O)[C@H](CCCCN)NC(=O)[C@H](CCCCN)NC(=O)[C@H](CO)NC(=O)[C@H]([C@@H](C)CC)NC(=O)[C@H]([C@@H](C)O)NC1=O [brevinin-1pl] (H-FFPIVAGVAAKVLKKIFCTISKKC-OH; disulfide 18-24)	16 µM (≈ 41.8 µg/mL)	4 µM (≈ 10.4 µg/mL)	2 µM (≈ 5.22 µg/mL)	16 µM (≈ 41.8 µg/mL)	8 µM (≈ 20.9 µg/mL)	> 128 µM	2 µM (≈ 5.22 µg/mL)	4 µM (≈ 10.4 µg/mL)		
